Measured values as given in US6576622B1, “Drug combination for the treatment of viral diseases” (University of Medicine & Dentistry of New Jersey, priority 1995, dated 2003).

How the values were obtained:
[1] = tested on: recombinant HIV, recombinant MLV, or replication-competent HIV; format: cell-based
Source text: The presence of a selectable marker gene in the recombinant HIV allowed the isolation of cells infected by the recombinant viruses in the presence of d4T. These cells were characterized by infection with both additional recombinant viruses and by replication-competent viruses.
(§1) Table 6. Colony formation and persistent resistance after Hela-T4 cell infection with MLV-neo virus in the presence and absence of various antiviral agents.

[2] = tested on: MLV-LacZ; test: Infection of Jurkat JE6.1 cell clones with MLV-LacZ in the presence of D4T; format: cell-based
Source text: Table 7. Infection of Jurkat JE6.1 cell clones sensitive and resistant to D4T.
** Bulk=bulk culture; R=resistant clone; C=control clone; JE6.1=parental cell line.

[3] = tested on: HIV-LacZ; format: cell-based; conditions: d4T at 50 μM
[4] = tested on: HIV-gpt; test: HIV-gpt colony formation in the presence of D4T; format: cell-based; conditions: for Frequency: with D4T
Protocol: (§2) Production of recombinant HIV-gpt has been described elsewhere (26). The amphotropic cell line PA317 was transfected with the recombinant murine retrovirus pLXSN (36) and was used as the source of the recombinant MLV-neo virus. Stock preparations of HIV-1IIIB were harvested from H9 cells by the “shake off method” (13). Stock virus infectivity was determined by end-point dilution in MT-2 cells (32). Virus induced cytopathic effect was scored 7 days post-infection and the TCID50 was calculated with the Reed and Muench equation (33).
(§3) To confirm this high rate of infection in the absence of genetic drug resistance, we used several other recombinant viruses and host cells. […] A high rate of infection of Jurkat cells in the presence of d4T has also been seen.
(§4) Table 5. HIV-gpt produced in COS cells by transfection with plasmids (plasmid derived) is compared with HIV-gpt produced by, rescue from H9/HIV-gpt cell line after infection with HIV-IIIB and cells infected with MLV-neo.

[5] = tested on: HIV-IIIB; test: HIV-IIIB infection of JE6.1 cells refractory to d4T, D4T IC50 with FUdr (RT activity); format: cell-based, HIV-1; conditions: Human immunodeficiency virus 1, IIIB, 144 h, concentration of D4T for 50% inhibition of RT activity on day 6, F = uM FUdr
Protocol: Table 8. Jurkat JE6.1 cells refractory to the antiviral activity of d4T (D4T bulk, D4TR1, D4TR3) and control JE6.1 cells were infected with HIV-IIIB in the presence of 0.001 uM d4T, 0.01 uM d4T 0.1 uM d4T, 1 uM d4T, 10 uM d4T, 100 uM d4T and 1000 uM d4T in the presence of 0.005 uM FUdr, 0.01 uM FUdr or 0.25 uM FUdr.

[6] = tested on: MLV-neo; test: MLV-neo colony formation in the presence of antiviral agents; format: cell-based, Moloney Leukemia virus
Protocol: as §2, §3, §4, §1

[7] = tested on: HIV-gpt; test: HIV-gpt colony formation after infection of HeLa-T4 cells in the presence of antiretroviral agents; format: cell-based; conditions: HeLa-T4; plasmid derived HIV-gpt (COS cells); AZT 10 μM, DDI 50 μM, D4T 50 μM; no drug control 8800

Structure (SMILES): Cc1cn([C@H]2C=C[C@@H](CO)O2)c(=O)[nH]c1=O [D4T, Stavudine]
- cells infected with HIV in the presence of d4T that are readily re-infected in the presence of high concentrations of d4T [1]: ~50%
- No. of persistently resistant colonies ([1]; Hela-T4, MLV-neo, AZT 10 uM, DDI 50 uM, DDC 10 uM, D4T 50 uM, resistant/tested): 23/63
- isolated cells repeatedly refractory to the antiviral effects of d4T ([1]; cells infected in the presence of d4T, re-infection at high concentrations of d4T): approximately 37%
- Frequency ([1]; frequency of persistently resistant colonies, Hela-T4, MLV-neo): 2.5 × 10^−3
- % cells infected with MLV-LacZ in the presence of D4T relative to absence of D4T ([2]; JE6.1 parental cell line, 50 uM D4T): − ((−), 20%)
- % cells infected with MLV-LacZ in the presence of D4T relative to absence of D4T ([2]; JE6.1 parental cell line, 100 uM D4T): − ((−), 20%)
- % cells infected with MLV-LacZ in the presence of D4T relative to absence of D4T ([2]; Jurkat Bulk (bulk culture), 50 uM D4T): ++ ((++) 41-60%)
- % cells infected with MLV-LacZ in the presence of D4T relative to absence of D4T ([2]; Jurkat Bulk (bulk culture), 100 uM D4T): + ((+) 21-40%)
- % cells infected with MLV-LacZ in the presence of D4T relative to absence of D4T ([2]; Jurkat control clone C2, 50 uM D4T): − ((−), 20%)
- % cells infected with MLV-LacZ in the presence of D4T relative to absence of D4T ([2]; Jurkat control clone C2, 100 uM D4T): − ((−), 20%)
- % cells infected with MLV-LacZ in the presence of D4T relative to absence of D4T ([2]; Jurkat control clone C23, 50 uM D4T): − ((−), 20%)
- % cells infected with MLV-LacZ in the presence of D4T relative to absence of D4T ([2]; Jurkat control clone C23, 100 uM D4T): − ((−), 20%)
- % cells infected with MLV-LacZ in the presence of D4T relative to absence of D4T ([2]; Jurkat control clone C26, 50 uM D4T): − ((−), 20%)
- % cells infected with MLV-LacZ in the presence of D4T relative to absence of D4T ([2]; Jurkat control clone C26, 100 uM D4T): − ((−), 20%)
- % cells infected with MLV-LacZ in the presence of D4T relative to absence of D4T ([2]; Jurkat control clone C27, 50 uM D4T): − ((−), 20%)
- % cells infected with MLV-LacZ in the presence of D4T relative to absence of D4T ([2]; Jurkat control clone C27, 100 uM D4T): − ((−), 20%)
- % cells infected with MLV-LacZ in the presence of D4T relative to absence of D4T ([2]; Jurkat resistant clone R1, 50 uM D4T): ++++ ((++++), 81-100%)
- % cells infected with MLV-LacZ in the presence of D4T relative to absence of D4T ([2]; Jurkat resistant clone R1, 100 uM D4T): ++++ ((++++), 81-100%)
- % cells infected with MLV-LacZ in the presence of D4T relative to absence of D4T ([2]; Jurkat resistant clone R3, 50 uM D4T): +++ ((+++), 61-80%)
- % cells infected with MLV-LacZ in the presence of D4T relative to absence of D4T ([2]; Jurkat resistant clone R3, 100 uM D4T): ++ ((++) 41-60%)
- % cells infected with MLV-LacZ in the presence of D4T relative to absence of D4T ([2]; Jurkat resistant clone R4, 50 uM D4T): − ((−), 20%)
- % cells infected with MLV-LacZ in the presence of D4T relative to absence of D4T ([2]; Jurkat resistant clone R4, 100 uM D4T): − ((−), 20%)
- % cells infected with MLV-LacZ in the presence of D4T relative to absence of D4T ([2]; Jurkat resistant clone R7, 50 uM D4T): − ((−), 20%)
- % cells infected with MLV-LacZ in the presence of D4T relative to absence of D4T ([2]; Jurkat resistant clone R7, 100 uM D4T): − ((−), 20%)
- % cells infected with MLV-LacZ in the presence of D4T relative to absence of D4T ([2]; Jurkat resistant clone R12, 50 uM D4T): ++++ ((++++), 81-100%)
- % cells infected with MLV-LacZ in the presence of D4T relative to absence of D4T ([2]; Jurkat resistant clone R12, 100 uM D4T): ++++ ((++++), 81-100%)
- % cells infected with MLV-LacZ in the presence of D4T relative to absence of D4T ([2]; Jurkat resistant clone R14, 50 uM D4T): + ((+) 21-40%)
- % cells infected with MLV-LacZ in the presence of D4T relative to absence of D4T ([2]; Jurkat resistant clone R14, 100 uM D4T): − ((−), 20%)
- % cells infected with MLV-LacZ in the presence of D4T relative to absence of D4T ([2]; Jurkat resistant clone R15, 50 uM D4T): ++++ ((++++), 81-100%)
- % cells infected with MLV-LacZ in the presence of D4T relative to absence of D4T ([2]; Jurkat resistant clone R15, 100 uM D4T): ++++ ((++++), 81-100%)
- % cells infected with MLV-LacZ in the presence of D4T relative to absence of D4T ([2]; Jurkat resistant clone R16, 50 uM D4T): + ((+) 21-40%)
- % cells infected with MLV-LacZ in the presence of D4T relative to absence of D4T ([2]; Jurkat resistant clone R16, 100 uM D4T): − ((−), 20%)
- % cells infected with MLV-LacZ in the presence of D4T relative to absence of D4T ([2]; Jurkat resistant clone R19, 50 uM D4T): − ((−), 20%)
- % cells infected with MLV-LacZ in the presence of D4T relative to absence of D4T ([2]; Jurkat resistant clone R19, 100 uM D4T): − ((−), 20%)
- % cells infected with MLV-LacZ in the presence of D4T relative to absence of D4T ([2]; Jurkat resistant clone R20, 50 uM D4T): ++++ ((++++), 81-100%)
- % cells infected with MLV-LacZ in the presence of D4T relative to absence of D4T ([2]; Jurkat resistant clone R20, 100 uM D4T): +++ ((+++), 61-80%)
- % cells infected with MLV-LacZ in the presence of D4T relative to absence of D4T ([2]; Jurkat resistant clone R21, 50 uM D4T): ++++ ((++++), 81-100%)
- % cells infected with MLV-LacZ in the presence of D4T relative to absence of D4T ([2]; Jurkat resistant clone R21, 100 uM D4T): ++++ ((++++), 81-100%)
- % cells infected with MLV-LacZ in the presence of D4T relative to absence of D4T ([2]; Jurkat resistant clone R22, 50 uM D4T): ++ ((++) 41-60%)
- % cells infected with MLV-LacZ in the presence of D4T relative to absence of D4T ([2]; Jurkat resistant clone R22, 100 uM D4T): + ((+) 21-40%)
- % cells infected with MLV-LacZ in the presence of D4T relative to absence of D4T ([2]; Jurkat resistant clone R26, 50 uM D4T): + ((+) 21-40%)
- % cells infected with MLV-LacZ in the presence of D4T relative to absence of D4T ([2]; Jurkat resistant clone R26, 100 uM D4T): − ((−), 20%)
- % cells infected with MLV-LacZ in the presence of D4T relative to absence of D4T ([2]; Jurkat resistant clone R29, 50 uM D4T): − ((−), 20%)
- % cells infected with MLV-LacZ in the presence of D4T relative to absence of D4T ([2]; Jurkat resistant clone R29, 100 uM D4T): − ((−), 20%)
- % cells infected with MLV-LacZ in the presence of D4T relative to absence of D4T ([2]; Jurkat resistant clone R33, 50 uM D4T): +++ ((+++), 61-80%)
- % cells infected with MLV-LacZ in the presence of D4T relative to absence of D4T ([2]; Jurkat resistant clone R33, 100 uM D4T): + ((+) 21-40%)
- % cells infected with MLV-LacZ in the presence of D4T relative to absence of D4T ([2]; Jurkat resistant clone R36, 50 uM D4T): ++++ ((++++), 81-100%)
- % cells infected with MLV-LacZ in the presence of D4T relative to absence of D4T ([2]; Jurkat resistant clone R36, 100 uM D4T): ++ ((++) 41-60%)
- cross resistance of cell lines “persistently resistant” to AZT to other nucleoside analogs [3]: partial cross resistance
- Frequency ([4]; HIV-gpt by rescue with HIV): 1.6 × 10^3
- No. of colonies with D4T ([4]; HIV-gpt by rescue with HIV, without D4T 3.4 × 10^4): 53
- Frequency ([4]; plasmid derived HIV-gpt): 1.7 × 10^3
- No. of colonies with D4T ([4]; plasmid derived HIV-gpt, without D4T 4.7 × 10^4): 80
- IC50 ([5]; D4TBulk cells (refractory to d4T)): 3 µM
- IC50 ([5]; D4TR1 cells (refractory to d4T)): 74 µM
- IC50 ([5]; D4TR3 cells (refractory to d4T)): 2 µM
- IC50 ([5]; JE6.1 control cells): 0.02 µM
- No. of colonies ([6]; Hela-T4, AZT 10 uM, DDI 50 uM, DDC 10 uM, D4T 50 uM, control 9050): 63
- No. of colonies with D4T ([6]; without D4T 9.2 × 10^4): 101
- Number of colonies [7]: 50
